Experimental data: ChEMBL document CHEMBL1154393, “Neuroprotective and cholinergic properties of multifunctional glutamic acid derivatives for the treatment of Alzheimer's disease” (J Med Chem, 2009)

What was measured:
Cholinesterase [1] = target: Cholinesterase (Homo sapiens, UniProt P06276); assay: Inhibition of human BuChE in serum; type: cell-free
Acetylcholinesterase [2] = target: T1, Acetylcholinesterase (Homo sapiens, UniProt P22303); assay: Displacement of propidium iodide from AChE peripheral anionic site at 0.3 uM
T1 sequence (P22303 whole entry): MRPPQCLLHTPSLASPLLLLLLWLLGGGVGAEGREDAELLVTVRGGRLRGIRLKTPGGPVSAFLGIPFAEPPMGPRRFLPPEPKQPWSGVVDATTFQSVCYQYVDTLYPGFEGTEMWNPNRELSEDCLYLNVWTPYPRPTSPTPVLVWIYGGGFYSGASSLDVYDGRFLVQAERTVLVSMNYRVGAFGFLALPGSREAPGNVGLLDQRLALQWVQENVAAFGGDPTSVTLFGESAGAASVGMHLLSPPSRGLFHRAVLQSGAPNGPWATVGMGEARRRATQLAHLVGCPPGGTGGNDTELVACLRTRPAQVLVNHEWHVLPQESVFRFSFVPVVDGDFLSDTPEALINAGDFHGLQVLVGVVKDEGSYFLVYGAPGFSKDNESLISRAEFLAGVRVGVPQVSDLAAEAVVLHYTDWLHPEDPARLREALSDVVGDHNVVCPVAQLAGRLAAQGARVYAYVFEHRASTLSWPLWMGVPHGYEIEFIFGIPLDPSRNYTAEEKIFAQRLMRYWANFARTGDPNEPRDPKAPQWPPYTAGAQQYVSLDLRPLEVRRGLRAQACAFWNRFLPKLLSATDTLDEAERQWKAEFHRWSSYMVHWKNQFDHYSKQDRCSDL

Acetylcholinesterase [3] = target: T1, Acetylcholinesterase; assay: Displacement of propidium iodide from AChE peripheral anionic site at 1 uM
Acetylcholinesterase [4] = target: T1, Acetylcholinesterase; assay: Displacement of propidium iodide from AChE peripheral anionic site at 3 uM
SH-SY5Y [5] = assay: Neuroprotective activity against human SH-SY5Y cells assessed as protection reduction in H2O2-induced LDH release at 1 uM after 24 hrs; type: functional; set-up: scale not given: the % may be the effect or the level left
SH-SY5Y [6] = assay: Neuroprotective activity against human SH-SY5Y cells assessed as protection reduction in H2O2-induced LDH release at 3 uM after 24 hrs; type: functional; set-up: scale not given: the % may be the effect or the level left
SH-SY5Y [7] = assay: Neuroprotective activity against human SH-SY5Y cells assessed as protection reduction in H2O2-induced LDH release at 10 uM after 24 hrs; type: functional; set-up: scale not given: the % may be the effect or the level left
SH-SY5Y [8] = assay: Neuroprotective activity against human SH-SY5Y cells assessed as protection reduction in H2O2-induced LDH release at 30 uM after 24 hrs; type: functional; set-up: scale not given: the % may be the effect or the level left
SH-SY5Y [9] = assay: Neuroprotective activity against H2O2-induced human SH-SY5Y cells assessed as cell viability at 30 uM after 24 hrs; type: functional; conditions: read-out: Activity
SH-SY5Y [10] = assay: Neuroprotective activity against rotenone/oligomycin A-treated human SH-SY5Y cells assessed as cytoprotection at 0.3 uM pretreated 24 hrs before rotenone/oligomycin A challenge; type: functional
SH-SY5Y [11] = assay: Neuroprotective activity against rotenone/oligomycin A-treated human SH-SY5Y cells assessed as cytoprotection at 1 uM pretreated 24 hrs before rotenone/oligomycin A challenge; type: functional
SH-SY5Y [12] = assay: Neuroprotective activity against rotenone/oligomycin A-treated human SH-SY5Y cells assessed as cytoprotection at 3 uM pretreated 24 hrs before rotenone/oligomycin A challenge; type: functional
SH-SY5Y [13] = assay: Neuroprotective activity against human SH-SY5Y cells assessed as cytoprotection at 0.3 uM coincubated with rotenone/oligomycin A measured after 24 hrs; type: functional
SH-SY5Y [14] = assay: Neuroprotective activity against human SH-SY5Y cells assessed as cytoprotection at 1 uM coincubated with rotenone/oligomycin A measured after 24 hrs; type: functional
SH-SY5Y [15] = assay: Neuroprotective activity against human SH-SY5Y cells assessed as cytoprotection at 3 uM coincubated with rotenone/oligomycin A measured after 24 hrs; type: functional
Cholinesterase [16] = target: Cholinesterase (Equus caballus, UniProt P81908)
Chain of Cholinesterase (Equus caballus, UniProt P81908) (P81908 whole entry): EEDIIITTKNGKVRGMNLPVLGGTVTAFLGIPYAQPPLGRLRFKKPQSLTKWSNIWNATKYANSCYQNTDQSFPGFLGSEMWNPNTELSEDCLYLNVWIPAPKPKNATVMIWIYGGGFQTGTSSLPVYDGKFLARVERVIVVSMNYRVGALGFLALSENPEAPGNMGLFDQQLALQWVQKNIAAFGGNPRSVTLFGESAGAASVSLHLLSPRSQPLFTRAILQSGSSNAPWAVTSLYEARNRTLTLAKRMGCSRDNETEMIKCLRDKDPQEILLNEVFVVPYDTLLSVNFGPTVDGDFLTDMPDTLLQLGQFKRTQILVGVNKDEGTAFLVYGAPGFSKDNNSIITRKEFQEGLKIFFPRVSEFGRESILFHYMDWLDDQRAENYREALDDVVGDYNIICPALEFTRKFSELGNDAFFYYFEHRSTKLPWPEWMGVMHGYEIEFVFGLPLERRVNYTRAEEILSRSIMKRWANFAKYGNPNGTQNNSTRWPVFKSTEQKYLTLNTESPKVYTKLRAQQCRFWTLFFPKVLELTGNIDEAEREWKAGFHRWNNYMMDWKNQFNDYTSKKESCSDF
Description: Inhibition of BuChE in horse serum by Ellman method

Acetylcholinesterase [17] = target: T1, Acetylcholinesterase
Description: Inhibition of human AChE in erythrocyte

Acetylcholinesterase [18] = target: T2, Acetylcholinesterase (Bos taurus, UniProt P23795)
T2 sequence (P23795 whole entry): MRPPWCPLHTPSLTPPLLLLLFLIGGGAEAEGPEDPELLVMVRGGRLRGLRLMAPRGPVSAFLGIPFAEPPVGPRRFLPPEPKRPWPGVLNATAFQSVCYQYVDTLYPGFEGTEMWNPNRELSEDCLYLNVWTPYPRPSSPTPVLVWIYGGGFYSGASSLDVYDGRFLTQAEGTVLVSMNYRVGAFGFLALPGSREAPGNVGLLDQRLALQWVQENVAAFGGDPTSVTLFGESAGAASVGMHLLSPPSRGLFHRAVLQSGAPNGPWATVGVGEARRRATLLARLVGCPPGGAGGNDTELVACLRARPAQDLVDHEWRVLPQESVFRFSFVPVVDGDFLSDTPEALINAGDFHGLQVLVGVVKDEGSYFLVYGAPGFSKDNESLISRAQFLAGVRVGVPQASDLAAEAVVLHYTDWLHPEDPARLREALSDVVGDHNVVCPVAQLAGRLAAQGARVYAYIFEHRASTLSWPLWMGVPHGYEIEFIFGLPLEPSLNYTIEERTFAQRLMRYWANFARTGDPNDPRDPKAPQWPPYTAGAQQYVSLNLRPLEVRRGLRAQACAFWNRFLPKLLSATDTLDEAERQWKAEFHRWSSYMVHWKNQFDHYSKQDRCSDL
Description: Inhibition of AChE in bovine erythrocyte by Ellman method

in vitro = conditions: PAMPA
Description: Permeability across PAMPA membrane

SH-SY5Y [19] = assay: Neuroprotective activity against rotenone/oligomycin A-treated human SH-SY5Y cells assessed as cytoprotection at 0.1 uM pretreated 24 hrs before rotenone/oligomycin A challenge; type: functional
SH-SY5Y [20] = assay: Neuroprotective activity against human SH-SY5Y cells assessed as cytoprotection at 0.1 uM coincubated with rotenone/oligomycin A measured after 24 hrs; type: functional

Chain of Cholinesterase (Homo sapiens, UniProt P06276) (P06276 whole entry): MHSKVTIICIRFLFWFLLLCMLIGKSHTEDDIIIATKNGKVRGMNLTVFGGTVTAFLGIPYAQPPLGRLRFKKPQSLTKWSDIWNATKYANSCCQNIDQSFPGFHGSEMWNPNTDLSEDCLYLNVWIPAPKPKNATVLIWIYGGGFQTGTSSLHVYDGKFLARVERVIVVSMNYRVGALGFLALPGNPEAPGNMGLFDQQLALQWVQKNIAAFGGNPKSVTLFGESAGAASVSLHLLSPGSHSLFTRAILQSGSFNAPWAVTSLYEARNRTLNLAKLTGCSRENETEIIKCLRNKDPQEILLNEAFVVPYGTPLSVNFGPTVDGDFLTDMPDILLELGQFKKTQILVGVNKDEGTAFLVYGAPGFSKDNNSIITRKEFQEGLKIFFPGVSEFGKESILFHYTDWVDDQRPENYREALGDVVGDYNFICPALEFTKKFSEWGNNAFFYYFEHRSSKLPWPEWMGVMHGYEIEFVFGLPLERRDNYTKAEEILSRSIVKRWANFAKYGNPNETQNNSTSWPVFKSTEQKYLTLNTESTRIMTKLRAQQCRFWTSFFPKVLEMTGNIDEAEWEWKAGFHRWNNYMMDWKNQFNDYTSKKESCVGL

SMILES	IC50 (Cholinesterase [1]) [µM]	Activity (Acetylcholinesterase [2]) [%]	Activity (Acetylcholinesterase [3]) [%]	Activity (Acetylcholinesterase [4]) [%]	Activity (SH-SY5Y [5]) [%]	Activity (SH-SY5Y [6]) [%]	Activity (SH-SY5Y [7]) [%]	Activity (SH-SY5Y [8]) [%]	viability at 30 µM (SH-SY5Y [9]) [%]	Activity (SH-SY5Y [10]) [%]	Activity (SH-SY5Y [11]) [%]	Activity (SH-SY5Y [13]) [%]	Activity (SH-SY5Y [14]) [%]	IC50 (Cholinesterase [16]) [µM]	IC50 (Acetylcholinesterase [17]) [µM]	IC50 (Acetylcholinesterase [18]) [µM]	Papp (in vitro) [×10⁻⁶ cm/s]	also measured
CCCCCCOC(=O)[C@H](CCC(=O)NCCC1CCN(Cc2ccccc2)CC1)NC(=O)c1cc(Br)cs1	0.85	11.3	< 0.5	< 0.5	63.3	84.3	66.7	66.7	100	19	27.8	19.7	0	0.75	0.18	1.2		Activity (SH-SY5Y [12]): 21.4%; Activity (SH-SY5Y [15]): 19.6%
C=CC[N+](C)(C)c1ccc(CCC(=O)CCc2ccc([N+](C)(C)CC=C)cc2)cc1				16														
CCCCCCOC(=O)[C@H](CCC(=O)NCCC1CCN(Cc2ccccc2)CC1)NC(=O)c1cc2ccccc2s1	0.33	31.5	26.5	39.7	28.7	20.9	21.2	17.9	100					0.55	0.27	2.5	25.6	
CCCCCCOC(=O)[C@H](CCC(=O)NCCC1CCN(Cc2ccccc2)CC1)NC(=O)OCc1ccccc1	0.73	20.8	25	29.3	4.1	17.4	39.1	5.3	100					0.75	0.25	1.4		
CCCCCCOC(=O)[C@H](CCC(=O)NCCC1CCN(Cc2ccccc2)CC1)NC(=O)c1cc2ccsc2s1	0.35	42.2	33.3	23.3	54.5	41.6	46.4	20.3	100	46.1	45.4	20.8	30.8	0.7	0.3	3.5	28.5	Activity (SH-SY5Y [19]): 34.8%; Activity (SH-SY5Y [20]): 22.3%
CCCCCCOC(=O)[C@H](CCC(=O)NCCC1CCN(Cc2ccccc2)CC1)NC(=O)c1ccccc1	1.75	24.7	15.9	37.3	43.9	68.1	52.4	67	100	47.9	43.8	20.1	21	1.5	0.53	1.9	18.7	Activity (SH-SY5Y [12]): 38.5%; Activity (SH-SY5Y [15]): 15.1%
CCCCCCOC(=O)[C@H](CCC(=O)NCCC1CCN(Cc2ccccc2)CC1)NC(=O)Cc1cc2ccc(Cl)cc2s1	0.07	14.7	16	23.4	26.2	32.5	0	0	100					0.05	0.1	2.3		
Cc1c(C)c2c(c(C)c1O)CCC(C)(C(=O)O)O2 (centres undefined) [TROLOX]					0	0		57.7										Activity (SH-SY5Y [12]): 65.1%; Activity (SH-SY5Y [15]): 63.7%
CCCCCCOC(=O)[C@H](CCC(=O)NCCC1CCN(Cc2ccccc2)CC1)NC(=O)OC(C)(C)C	3	42.3	43.6	42	24.9	1.7	0	0	100					3.5	0.95	5	11.6	
CCCCCCOC(=O)[C@H](CCC(=O)NCCC1CCN(Cc2ccccc2)CC1)NC(=O)c1cccs1	1.8	7.5	10.3	15	55.1	64.5	73	31.8	100	27.1	22.3	0	7	1	0.5	3.5	20.9	Activity (SH-SY5Y [19]): 48.9%; Activity (SH-SY5Y [20]): 0%
CCCCCCOC(=O)[C@H](CCC(=O)NCCC1CCN(Cc2ccccc2)CC1)NC(=O)c1cc2cccnc2s1	0.83	37.4	35.4	27.2	0	30.7	27.9	48.8	100					0.95	0.44	0.33	18.8	
